Where two headings read alike, the source gives them in different places.
Tests used:
Assay type in all cases: biochemical
[1] = target: T1, PI3Kalpha (Homo sapiens, UniProt P42336); assay: Human PI3K alpha enzyme assay (HTRF)
T1 construct: His (N); host or cells: SF9 cells (baculovirus)
Description: (§1) The catalytic subunits of PI3Ks are cloned into either pDEST8 (p110 alpha) or pDEST10 (p110beta, p110delta, and p110gamma) as N-terminal His tagged fusion proteins using the Gateway system (Invitrogen, catalog #11804-010 for pDEST8 and 11806-015 for pDEST10). The sequences are verified before recombinant protein expression using the Baculovirus Expression System with Gateway® Technology. The accession numbers for the subunits are as follows:
(§2) For expression of the p110 complexes, the p85 (MOI of 4) is co-infected with p110 alpha, beta, and delta respectively (1MOI) in SF9 cells and harvested at 60 hours post co-infection. P110 gamma was infected at 1 MOI and harvested at 60 hours post infection.
(§3) For purification, PI3Ks are purified by Ni-NTA Agarose (Qiagen #30250) followed by Mono Q 10/100 GL (Ge Healthcare #17-5167-01). VPS34 is purified by Glutathione Sepharose 4 Fast Flow (GE Healthcare #17-5132-03) followed by HiTrap Q (GE Healthcare #17-1153-01).
1) Human PI3K Alpha Enzyme Assay Method
(§4) 0.5 uL compounds in DMSO are added to wells of a 384 well microtitre plate (Corning 3575). At room temperature: 10 ul PI3K reaction buffer (50 mM Hepes, 5 mM DTT, 150 mM NaCl, 10 mM beta-glycerophosphate, 10 mM MgCl2, 0.25 mM sodium cholate and 0.001% CHAPS, pH 7.00) containing ATP (25 uM, Promega) is added followed immediately by 10 ul PI3K reaction buffer containing di-C8 PI(4,5)P2 (3.5 uM, CellSignals) and PI3Kalpha (0.4875 nM, Millennium Protein Sciences Group) and the mixture is incubated with shaking at room temperature for 30 minutes. Then 5 ul PI3K stop mix (50 mM Hepes, 5 mM DTT, 150 mM NaCl, 0.01% Tween-20, 15 mM EDTA and 25 nM biotin-PI(3,4,5)P3 (Echelon) is added to quench the reaction followed immediately by addition of 5 ul HTRF detection mix (50 mM Hepes, 5 mM DTT, 150 mM NaCl, 0.01% Tween-20, 40 mM KF, 10 nM GST:GRP-1 PH domain (Millennium Protein Sciences Group), 15 nM Streptavidin-XL (CisBio) and 0.375 nM anti-GST Eu++ antibody (CisBio) at pH 7.00). The plates are then incubated for 1 hour at room temperature with shaking and then read on a BMG PheraStar Plus reader.
(§5) For the assay methods described above, test compound percent inhibition, at various concentrations, is calculated relative to control (DMSO and EDTA) treated samples. Compound concentration versus percent inhibition curves are fitted to generate IC50 values. One skilled in the art will appreciate that the values generated either as percentage inhibition at a single concentration or IC50 values are subject to experimental variation.

[2] = target: T2, PI3K beta (Homo sapiens, UniProt P42338); assay: Human PI3K beta enzyme assay (HTRF)
T2 construct: His (N); host or cells: SF9 cells (baculovirus)
Description: as §1, §2, §3, §4
(§6) 2) Human PI3K beta, delta and gamma isoforms are tested using the procedure described for PI3K alpha above but with the following changes: PI3K beta (5.25 nM), PI3K delta (0.75 nM) and PI3K gamma (5 nM). All isoforms supplied by Millennium Protein Science Group.
as §5

[3] = target: T3, PI3K delta (Homo sapiens, UniProt O00329); assay: Human PI3K delta enzyme assay (HTRF)
T3 construct: His (N); host or cells: SF9 cells (baculovirus)
Description: as §1, §2, §3, §4, §6, §5

[4] = target: T4, PI3K gamma (Homo sapiens, UniProt P48736); assay: Human PI3K gamma enzyme assay (HTRF)
T4 construct: His (N); host or cells: SF9 cells (baculovirus)
Description: as §1, §2, §3, §4, §6, §5

[5] = target: T5, VPS34 (Homo sapiens, UniProt Q8NEB9); assay: Human VPS34 enzyme assay (Adapta Universal Kinase Assay); details: 1 h; at a 1.0 μM concentration; read-out: VPS34 Percent Inhibition
T5 construct: GST (N); host or cells: SF9 cells (baculovirus)
Method: VPS34 (accession number GB:BC033004) is cloned into pDEST20-Thombin as N-terminal GST tagged fusion proteins using the Gateway system (Invitrogen, catalog #11804-013). The sequences are verified before recombinant protein expression using the Baculovirus Expression System with Gateway® Technology.
For expression VPS34 was infected at 1MOI in SF9 cells and harvested 72 hours post infection.
For purification, VPS34 is purified by Glutathione Sepharose 4 Fast Flow (GE Healthcare #17-5132-03) followed by HiTrap Q (GE Healthcare #17-1153-01).
3) VPS34 is assayed using Adapta™ Universal Kinase Assay Kit (Invitrogen).
4) Human VPS34 enzyme assay method
100 nL compounds in DMSO are added to wells of a 384 well microtitre plate (Greiner 780076). […] The plates are then incubated for 30 minutes at room temperature with shaking and then read on a BMG PheraStar Plus reader.
For the assay methods described above, test compound percent inhibition, at various concentrations, is calculated relative to control (DMSO and EDTA) treated samples. […]

[6] = at a 1.1 μM concentration, read-out: PI3Kα Percent Inhibition
[7] = at a 1.1 μM concentration, read-out: PI3Kβ Percent Inhibition
[8] = at a 1.0 μM concentration, read-out: PI3Kδ Percent Inhibition
[9] = at a 1.0 μM concentration, read-out: PI3Kγ Percent Inhibition
[10] = concentration not given, read-out: p110 alpha Percent Inhibition
[11] = concentration not given, read-out: p110 beta Percent Inhibition
[12] = concentration not given, b1433 gives 1.0 μM for PI3K δ and γ, read-out: p110 delta Percent Inhibition
[13] = concentration not given, b1433 gives 1.0 μM for PI3K δ and γ, read-out: p110 gamma Percent Inhibition

T4 sequence (P48736 whole entry): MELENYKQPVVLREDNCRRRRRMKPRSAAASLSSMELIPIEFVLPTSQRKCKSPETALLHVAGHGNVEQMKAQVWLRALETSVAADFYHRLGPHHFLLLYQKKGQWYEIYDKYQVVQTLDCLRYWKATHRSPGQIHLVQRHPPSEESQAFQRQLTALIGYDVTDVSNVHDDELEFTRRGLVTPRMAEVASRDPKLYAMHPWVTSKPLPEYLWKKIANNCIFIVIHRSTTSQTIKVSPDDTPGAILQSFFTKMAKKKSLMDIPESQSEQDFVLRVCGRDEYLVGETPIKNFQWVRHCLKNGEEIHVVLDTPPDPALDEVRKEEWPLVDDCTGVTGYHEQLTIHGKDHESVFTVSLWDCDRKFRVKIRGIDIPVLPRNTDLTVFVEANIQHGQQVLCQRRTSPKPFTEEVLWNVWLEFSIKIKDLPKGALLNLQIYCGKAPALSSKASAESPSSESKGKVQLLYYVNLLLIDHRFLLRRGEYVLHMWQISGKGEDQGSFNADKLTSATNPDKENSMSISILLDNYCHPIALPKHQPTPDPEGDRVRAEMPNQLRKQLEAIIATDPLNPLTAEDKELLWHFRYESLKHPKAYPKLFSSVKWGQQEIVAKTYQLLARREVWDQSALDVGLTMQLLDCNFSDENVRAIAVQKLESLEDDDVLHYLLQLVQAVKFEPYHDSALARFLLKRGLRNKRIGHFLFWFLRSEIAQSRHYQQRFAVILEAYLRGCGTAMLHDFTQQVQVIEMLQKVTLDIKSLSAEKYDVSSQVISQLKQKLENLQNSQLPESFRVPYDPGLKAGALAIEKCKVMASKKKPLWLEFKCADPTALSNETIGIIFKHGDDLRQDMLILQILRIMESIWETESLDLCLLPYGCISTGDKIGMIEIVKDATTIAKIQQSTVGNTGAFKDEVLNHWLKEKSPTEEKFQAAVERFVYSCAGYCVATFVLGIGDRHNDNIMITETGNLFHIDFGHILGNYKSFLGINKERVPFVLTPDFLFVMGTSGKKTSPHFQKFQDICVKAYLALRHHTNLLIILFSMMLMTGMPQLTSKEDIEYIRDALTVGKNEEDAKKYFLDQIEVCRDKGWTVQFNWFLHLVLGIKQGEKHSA
T1 sequence (P42336 whole entry): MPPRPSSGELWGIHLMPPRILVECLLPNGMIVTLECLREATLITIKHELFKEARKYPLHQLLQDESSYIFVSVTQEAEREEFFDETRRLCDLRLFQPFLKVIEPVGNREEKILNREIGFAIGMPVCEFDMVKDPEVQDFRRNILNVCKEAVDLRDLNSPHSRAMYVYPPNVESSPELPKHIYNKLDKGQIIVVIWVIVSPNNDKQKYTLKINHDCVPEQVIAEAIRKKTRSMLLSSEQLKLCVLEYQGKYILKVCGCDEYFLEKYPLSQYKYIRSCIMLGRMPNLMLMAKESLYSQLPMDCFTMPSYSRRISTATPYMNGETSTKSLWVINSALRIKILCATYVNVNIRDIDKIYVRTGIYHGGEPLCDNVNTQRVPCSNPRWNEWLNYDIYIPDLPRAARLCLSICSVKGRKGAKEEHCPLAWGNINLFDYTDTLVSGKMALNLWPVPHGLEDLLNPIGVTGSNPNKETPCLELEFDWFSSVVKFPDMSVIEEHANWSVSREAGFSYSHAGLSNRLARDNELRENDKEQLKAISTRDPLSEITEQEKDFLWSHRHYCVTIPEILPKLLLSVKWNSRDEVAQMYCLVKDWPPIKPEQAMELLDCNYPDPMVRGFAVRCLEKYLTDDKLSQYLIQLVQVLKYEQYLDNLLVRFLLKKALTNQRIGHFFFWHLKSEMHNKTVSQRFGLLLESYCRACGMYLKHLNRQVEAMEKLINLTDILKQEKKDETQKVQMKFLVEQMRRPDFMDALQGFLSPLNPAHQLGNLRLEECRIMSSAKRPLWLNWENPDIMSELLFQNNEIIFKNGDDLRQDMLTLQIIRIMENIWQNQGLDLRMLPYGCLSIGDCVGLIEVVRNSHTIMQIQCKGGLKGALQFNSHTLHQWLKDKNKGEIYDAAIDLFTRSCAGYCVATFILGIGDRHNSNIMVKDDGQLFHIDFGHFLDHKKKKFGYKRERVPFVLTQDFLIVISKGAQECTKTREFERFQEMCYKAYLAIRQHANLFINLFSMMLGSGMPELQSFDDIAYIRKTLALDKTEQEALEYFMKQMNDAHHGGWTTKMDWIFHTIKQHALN
T1 sequence (P27986 whole entry partner): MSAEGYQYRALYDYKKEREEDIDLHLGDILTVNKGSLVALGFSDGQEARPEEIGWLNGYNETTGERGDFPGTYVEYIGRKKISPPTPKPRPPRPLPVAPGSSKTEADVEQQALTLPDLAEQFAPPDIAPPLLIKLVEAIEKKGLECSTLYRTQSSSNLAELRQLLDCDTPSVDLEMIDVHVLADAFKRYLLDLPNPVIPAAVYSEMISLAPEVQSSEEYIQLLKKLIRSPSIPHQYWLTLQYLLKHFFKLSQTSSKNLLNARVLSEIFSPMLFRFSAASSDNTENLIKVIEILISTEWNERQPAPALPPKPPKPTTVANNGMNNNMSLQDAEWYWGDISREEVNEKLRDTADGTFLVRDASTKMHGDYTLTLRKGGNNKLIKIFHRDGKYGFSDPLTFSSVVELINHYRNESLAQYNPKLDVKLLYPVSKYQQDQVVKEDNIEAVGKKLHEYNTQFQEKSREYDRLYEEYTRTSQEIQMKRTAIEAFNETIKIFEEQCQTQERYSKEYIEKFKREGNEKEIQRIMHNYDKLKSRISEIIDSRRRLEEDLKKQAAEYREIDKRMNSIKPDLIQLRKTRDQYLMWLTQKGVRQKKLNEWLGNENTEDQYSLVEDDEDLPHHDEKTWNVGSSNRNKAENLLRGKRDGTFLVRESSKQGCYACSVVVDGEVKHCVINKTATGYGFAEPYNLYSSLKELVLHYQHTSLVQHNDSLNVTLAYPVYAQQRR
T3 sequence (O00329 whole entry): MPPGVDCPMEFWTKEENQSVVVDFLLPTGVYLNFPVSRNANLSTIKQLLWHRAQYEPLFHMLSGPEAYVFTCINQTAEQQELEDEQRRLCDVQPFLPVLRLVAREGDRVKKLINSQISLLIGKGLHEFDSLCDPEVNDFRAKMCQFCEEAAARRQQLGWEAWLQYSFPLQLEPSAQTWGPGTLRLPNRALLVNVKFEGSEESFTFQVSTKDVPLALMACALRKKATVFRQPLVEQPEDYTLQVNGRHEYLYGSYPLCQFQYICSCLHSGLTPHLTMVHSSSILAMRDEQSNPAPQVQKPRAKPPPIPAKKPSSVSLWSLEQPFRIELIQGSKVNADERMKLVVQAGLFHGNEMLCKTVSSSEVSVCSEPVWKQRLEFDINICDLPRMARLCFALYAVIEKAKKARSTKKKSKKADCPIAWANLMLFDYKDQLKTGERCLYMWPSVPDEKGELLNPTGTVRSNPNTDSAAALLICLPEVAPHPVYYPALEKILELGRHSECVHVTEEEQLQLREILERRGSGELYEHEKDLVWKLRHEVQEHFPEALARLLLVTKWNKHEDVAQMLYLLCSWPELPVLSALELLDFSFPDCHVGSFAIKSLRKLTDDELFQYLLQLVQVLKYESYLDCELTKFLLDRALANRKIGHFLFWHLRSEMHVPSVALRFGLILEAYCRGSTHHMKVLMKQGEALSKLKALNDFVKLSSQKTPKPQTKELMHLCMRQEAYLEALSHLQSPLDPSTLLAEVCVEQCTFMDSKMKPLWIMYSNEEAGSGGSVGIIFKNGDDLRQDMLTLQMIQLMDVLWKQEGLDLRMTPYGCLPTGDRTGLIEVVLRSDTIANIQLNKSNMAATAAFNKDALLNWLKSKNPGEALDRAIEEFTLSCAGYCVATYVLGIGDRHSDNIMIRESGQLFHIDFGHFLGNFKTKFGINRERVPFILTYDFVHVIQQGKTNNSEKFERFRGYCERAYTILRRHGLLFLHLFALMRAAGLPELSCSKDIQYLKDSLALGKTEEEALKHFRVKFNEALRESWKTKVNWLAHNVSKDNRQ
T3 sequence (P27986 whole entry partner): as the sequence (P27986 whole entry partner) above
T2 sequence (P42338 whole entry): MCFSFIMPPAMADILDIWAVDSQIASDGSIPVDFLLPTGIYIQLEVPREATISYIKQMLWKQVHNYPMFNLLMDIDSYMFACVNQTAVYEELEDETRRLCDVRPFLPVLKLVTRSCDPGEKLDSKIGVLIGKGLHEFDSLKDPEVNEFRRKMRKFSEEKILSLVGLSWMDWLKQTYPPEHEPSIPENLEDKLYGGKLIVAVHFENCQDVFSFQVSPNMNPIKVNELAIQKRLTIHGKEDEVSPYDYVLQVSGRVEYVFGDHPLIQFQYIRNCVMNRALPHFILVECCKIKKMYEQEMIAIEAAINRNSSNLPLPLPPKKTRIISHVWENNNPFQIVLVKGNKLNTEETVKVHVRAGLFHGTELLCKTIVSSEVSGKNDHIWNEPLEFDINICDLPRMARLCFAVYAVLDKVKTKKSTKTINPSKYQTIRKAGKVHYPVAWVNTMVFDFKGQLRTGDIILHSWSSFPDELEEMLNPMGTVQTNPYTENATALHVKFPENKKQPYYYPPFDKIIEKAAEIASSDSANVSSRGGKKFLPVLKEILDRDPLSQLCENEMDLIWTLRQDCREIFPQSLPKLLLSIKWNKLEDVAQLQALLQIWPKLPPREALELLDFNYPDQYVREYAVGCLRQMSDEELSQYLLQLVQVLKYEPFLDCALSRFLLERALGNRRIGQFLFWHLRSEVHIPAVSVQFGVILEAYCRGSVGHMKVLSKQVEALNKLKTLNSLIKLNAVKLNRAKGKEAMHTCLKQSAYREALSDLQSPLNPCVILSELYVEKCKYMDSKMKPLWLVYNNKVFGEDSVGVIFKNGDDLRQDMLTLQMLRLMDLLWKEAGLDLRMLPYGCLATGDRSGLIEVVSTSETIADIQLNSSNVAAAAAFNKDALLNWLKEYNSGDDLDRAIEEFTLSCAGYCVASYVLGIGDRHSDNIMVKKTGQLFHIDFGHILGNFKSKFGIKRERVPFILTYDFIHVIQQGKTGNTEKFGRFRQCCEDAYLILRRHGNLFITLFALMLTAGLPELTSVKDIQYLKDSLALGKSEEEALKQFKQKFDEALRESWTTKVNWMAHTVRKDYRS
T2 sequence (P27986 whole entry partner): as the sequence (P27986 whole entry partner) above

Row | inhibition at 1.1 µM [1, 6] | inhibition at 1.1 µM [2, 7] | inhibition at 1 µM [3, 8] | inhibition at 1 µM [4, 9] | inhibition at 1 µM [5] | inhibition at 1.1 µM [1, 10] | inhibition at 1.1 µM [2, 11] | inhibition at 1 µM [3, 12] | inhibition at 1 µM [4, 13] | Structure (SMILES)
1 | 30% | 78% | 38.1% | 6.8% | 28.2% |  |  |  |  | N#Cc1c(N2CCOCC2)sc(C(=O)O)c1Cc1ccc(OC(F)(F)F)cc1 [Compound 102]
2 | 49% | 103% | 87.3% | 20.2% | 45.8% |  |  |  |  | N#Cc1c(N2CCOCC2)sc(C(=O)O)c1Cc1cc(F)c(F)cc1F [Compound 107]
3 |  |  |  |  |  | 61% | 97% | 74% | 28% | OC(c1cc(Br)cs1)c1cc(-c2ccncc2)sc1-c1nnc[nH]1 (stereo not shown) [Compound 233]
4 |  |  |  |  |  | 20% | 64% | 27% | 2% | COc1cccc(C(O)c2cc(-c3ccncc3)sc2-c2nnc[nH]2)c1 (stereo not shown) [Compound 253]
5 |  |  |  |  |  | 0% | 55% | 39% | 5% | NCc1c[nH]c(-c2sc(-c3ccncc3)nc2Cc2ccc(Cl)cc2)n1 [Compound 255, (2-(4-(4-chlorobenzyl)-2-(pyridin-4-yl)thiazol-5-yl)-1H-imidazol-4-yl)methanamine]
6 |  |  |  |  |  | 84% | 109% |  | 69% | N#Cc1c(N2CCOCC2)sc(C(=O)O)c1Cc1ccc2ccc(F)cc2c1 [Compound 287]
7 |  |  |  |  |  | 98% | 108% |  | 78% | N#Cc1c(N2CCOCC2)sc(C(=O)O)c1Cc1ccc2ccccc2c1F [Compound 293]
8 |  |  |  |  |  | 101% | 111% |  | 76% | N#Cc1c(N2CCOCC2)sc(C(=O)O)c1Cc1cc2ccccc2cc1F [Compound 295]
9 |  |  |  |  |  | 44% | 105% |  | 46% | N#Cc1c(N2CCOCC2)sc(C(=O)O)c1Cc1cc(F)c(Cl)cc1F [Compound 300]
10 |  |  |  |  |  | 37% | 106% |  | 37% | N#Cc1c(N2CCOCC2)sc(C(=O)O)c1Cc1ccc2c(c1)CCCC2 [Compound 305]
11 |  |  |  |  |  | 15% | 84% |  | 9% | N#Cc1c(N2CCOCC2)sc(C(N)=O)c1C(F)(F)c1ccc2ccccc2c1 [Compound 307]
12 |  |  |  |  |  | 41% | 106% |  | 39% | N#Cc1c(N2CCOCC2)sc(C(=O)O)c1C(F)(F)c1ccc2ccccc2c1 [Compound 308]
13 |  |  |  |  |  | 107% | 118% |  | 67% | N#Cc1c(N2CCOCC2)sc(C(=O)O)c1Cc1cc(F)c2ccccc2c1 [Compound 324]
14 |  |  |  |  |  | 14% | 60% |  | 11% | COC(c1ccc2ccccc2c1)c1c(C(=O)O)sc(N2CCOCC2)c1C#N (stereo not shown) [Compound 337]
15 |  |  |  |  |  | 84% | 110% |  | 67% | N#Cc1c(N2CCOCC2)sc(C(=O)O)c1Cc1ccc2c(F)cccc2c1 [Compound 343]
16 |  |  |  |  |  |  | 105% |  | 62% | N#Cc1c(N2CCOCC2)sc(C(=O)O)c1C(F)c1ccc2ccccc2c1 (stereo not shown) [Compound 345]
17 |  |  |  |  |  | 43% | 108% |  | 42% | N#Cc1c(N2CCOCC2)sc(-c2nnn[nH]2)c1C(F)(F)c1ccc2ccccc2c1 [Compound 349]
18 |  |  |  |  |  | 30% | 106% | 110% | 49% | c1ccc2cc(Cc3nc(N4CCOCC4)sc3-c3nnn[nH]3)ccc2c1 [Compound 360, 4-[4-(2-naphthylmethyl)-5-(1H-tetrazol-5-yl)-1,3-thiazol-2-yl]morpholine]
